According to patent publication US11213506B2, “Combination therapy for the treatment or prevention of tumours” (QBIOTICS PTY LTD, priority 2017, dated 2022):

Experiments:
[1] = tested on: CD11c+ BMDCs with B16-OVA cells; test: BMDC uptake of epoxytigliane treated B16-OVA cells; format: cell-based, C57Bl/6 mice; details: B16-OVA treated at 500 or 300 μM for 30 and 60 mins; 4 h co-culture
Procedure: The tibias and […] from four 7-8 week old C57Bl/6 mice were first surgically removed under sterile conditions. The marrow was flushed from the bone cavity with 10 ml of ice cold R10 media (using a 27G needle/syringe into a 50 ml polypropylene tube). Cells were pelleted at 1,500 rpm for 5 mins and washed ×2 with ice cold R10 media. After resuspension of the pellet into 10 ml of ice cold R10 medium, cells were counted using an improved haemocytometer and plated at a density of 2×10^6 cells per plate (petri dish) in 10 ml of R10 supplemented with 20 ng/ml murine GM-CSF. All plates were incubated at 37° C., 5% CO2 and at day 3 an additional 10 ml R10 with 20 ng/ml GM-CSF was added. Cells were again fed at day 6 and used for downstream assays on day 7.
Prior to co-incubation with BMDCs, B16-OVA cells were trypsinised, centrifuged at 1,200 rpm for 4 mins to pellet cells and washed ×2 with complete medium. Cells were then stained with 2 μM Cell Tracker Green in complete medium for 45 mins, after which they were pelleted and washed ×2 as above. Labelled B16-OVA cells were subsequently treated with Compounds 1, 2, 3 and 4 at two concentrations (500 or 300 μM) in media at a density of 1×10^6 cells/ml for 30 and 60 mins, after which cells were pelleted via centrifugation, supernatant removed via aspiration and the cell pellet washed ×1 with complete media. After the wash, the treated cells were resuspended in R10 media, inserted into the wells of a 6-well plate (Corning, #3471. Ultra low attachment surface) and BMDCs added. Co-cultures were incubated for 4 h after which cell suspensions were transferred to a microfuge tube and centrifuged at 1,500 rpm for 5 mins. Pellets were resuspended in 100 μl FACs buffer containing anti-CD11c-APC and incubated for 10 mins at 4° C. Cells were again pelleted, washed ×1 with FACs buffer and then fixed using PBS, 1% formaldehyde for 10 mins. After centrifugation and removal of the supernatant, cells were resuspended in 500 μl FACs buffer in preparation for flow cytometry.
Samples were first gated by FSC-H v FSC-A, then SSC-H v SS-A to identify single cells. The proportion of CD11c^+ cells (Ex: 640 nm, Em: 670/14) with CMFDAmid (Ex: 488 nm, Em: 530/30) were then determined for treated and untreated cells as a percentage of all CD11c^+ cells.

B16-OVA cells = test: ATP release assay; format: cell-based, mouse; details: both concentrations (500 and 300 μM), within 60 minutes
Procedure: (§1) A431 (human epidermoid carcinoma), MM649 (human melanoma) and B16-OVA (B16-F10 mouse melanoma cell line stably transfected with chicken ovalbumin) were cultured in RPMI-1640, 10% FCS (complete medium) at 37° C., 5% CO2 in a humidified incubator. BMDCs were cultured in R10 media (RPMI, 10% FCS, 2 mM glutamine, 50 μM beta-mercaptoethanol, Pen/Strep). All cell lines used in this study were confirmed as mycoplasma negative using MycoAlert (Lonza). STR profiling was also performed to confirm the identity of the human cell lines used.
(§2) Cell lines were plated at a density of 10,000 cells per well into clear 96-well plates (Corning, #3595; 100 μl of complete media) and the resultant plates incubated overnight as previously detailed. The following day, media was aspirated from each well and 50 μl of fresh medium was inserted. Stock solutions of Compounds 1, 2, 3 and 4 were diluted to 2× final assay concentration (1 mM and 600 μM) and 50 μl of these dilutions added to the required wells. Ethanol only control solutions were also compiled and administered. At the indicated timepoints, 80 μl of media was removed, centrifuged at 1,200 rpm for 4 mins to pellet cell debris and 50 μl assayed for ATP using a bioluminescence based ATP assay kit (FLAA, Sigma-Aldrich). Relative luminescence units were recorded for each sample using a Hybrid Synergy H4 plate reader (BioTek).

MM649 cells [2] = test: ATP release assay; format: cell-based, human; details: both concentrations (500 and 300 μM), within 60 minutes
Procedure: as §1, §2

A431 cells [3] = test: ATP release assay; format: cell-based, human; details: both concentrations (500 and 300 μM), within 60 minutes
Procedure: as §1, §2

MM649 cells [4] = test: IncuCyte cytotoxicity assay (propidium iodide); format: cell-based, human; details: 500 μM; for propidium iodide staining (loss of plasma membrane integrity): after 120 minutes, majority of cells; for cell morphology (cytoplasmic swelling, blistering): differing extents and kinetics of onset
Procedure: as §1, with “melanoma),” for “melanoma) and”, “ovalbumin), MM415 (human melanoma) and FaDu (human hypopharyngeal carcinoma) cells” for “ovalbumin)”, “incubator.” for “incubator. BMDCs were cultured in R10 media (RPMI, 10% FCS, 2 mM glutamine, 50 μM beta-mercaptoethanol, Pen/Strep).”
(§3) Four cancer cell lines (A431, MM649 (human melanoma), FaDu (HNSCC) and MM415 (human melanoma) were assessed for their response to epoxytigliane treatment. Cells were plated at a density of 10,000 cells per well (100 μl of complete media) into clear bottom black 96-well plates (Corning, #3603). Following 24 h incubation, the media within each well was aspirated and replaced with 50 μl of fresh media containing 1 μg/ml propidium iodide (PI). Stock solutions (20 mg/ml in ethanol) of four epoxytiglianes (Compounds 1, 2, 3 and 4) were diluted to 2× final assay concentration (1 mM) in identical media and inserted into a U-bottom 96 well plate in preparation for transfer. 50 μl of dilution was added to the required wells and the resultant plates inserted into an Essen Biosciences IncuCyte in preparation for imaging. Images were acquired at various time points (30 min, 1 h and at hourly intervals) for a total of 24 h.

A431 cells [5] = test: IncuCyte cytotoxicity assay (propidium iodide); format: cell-based, human; details: 500 μM; for propidium iodide staining (loss of plasma membrane integrity): after 120 minutes, majority of cells; for cell morphology (cytoplasmic swelling, blistering): differing extents and kinetics of onset
Procedure: as §1, with “melanoma),” for “melanoma) and”, “ovalbumin), MM415 (human melanoma) and FaDu (human hypopharyngeal carcinoma) cells” for “ovalbumin)”, “incubator.” for “incubator. BMDCs were cultured in R10 media (RPMI, 10% FCS, 2 mM glutamine, 50 μM beta-mercaptoethanol, Pen/Strep).”
as §3

FaDu cells = test: IncuCyte cytotoxicity assay (propidium iodide); format: cell-based, human; details: 500 μM; for propidium iodide staining (loss of plasma membrane integrity): after 120 minutes, majority of cells; for cell morphology (cytoplasmic swelling, blistering): differing extents and kinetics of onset
Procedure: as §1, with “melanoma),” for “melanoma) and”, “ovalbumin), MM415 (human melanoma) and FaDu (human hypopharyngeal carcinoma) cells” for “ovalbumin)”, “incubator.” for “incubator. BMDCs were cultured in R10 media (RPMI, 10% FCS, 2 mM glutamine, 50 μM beta-mercaptoethanol, Pen/Strep).”
as §3

MM415 cells = test: IncuCyte cytotoxicity assay (propidium iodide); format: cell-based, human; details: 500 μM; for propidium iodide staining (loss of plasma membrane integrity): after 120 minutes, majority of cells; for cell morphology (cytoplasmic swelling, blistering): differing extents and kinetics of onset
Procedure: as §1, with “melanoma),” for “melanoma) and”, “ovalbumin), MM415 (human melanoma) and FaDu (human hypopharyngeal carcinoma) cells” for “ovalbumin)”, “incubator.” for “incubator. BMDCs were cultured in R10 media (RPMI, 10% FCS, 2 mM glutamine, 50 μM beta-mercaptoethanol, Pen/Strep).”
as §3

Row | Structure (SMILES) | uptake of dying cancer cell fragments by CD11c+ dendritic cells/macrophages (BMDCs) [1] | ATP release (B16-OVA cells) | ATP release (MM649 cells [2]) | ATP release (A431 cells [3]) | propidium iodide staining (loss of plasma membrane integrity) (MM649 cells [4]) | cell morphology (cytoplasmic swelling, blistering) (MM649 cells [4]) | propidium iodide staining (loss of plasma membrane integrity) (A431 cells [5]) | cell morphology (cytoplasmic swelling, blistering) (A431 cells [5]) | propidium iodide staining (loss of plasma membrane integrity) (FaDu cells) | cell morphology (cytoplasmic swelling, blistering) (FaDu cells) | propidium iodide staining (loss of plasma membrane integrity) (MM415 cells) | cell morphology (cytoplasmic swelling, blistering) (MM415 cells)
1 | CCC(C)C(=O)OC1C(C)C2(O)C(C3OC3(CO)C(O)C3(O)C(=O)C(C)=CC32)C2C(C)(C)C12OC(=O)C(C)CC (stereo not drawn) [Compound 2, 12,13-di-(2-methylbutanoyl)-6,7-epoxy-4,5,9,12,13,20-hexahydroxy-1-tiglien-3-one] | promotes uptake | significant release of ATP | significant release of ATP | significant release of ATP | strong red staining | significant cytoplasmic swelling and ‘blistering’ | strong red staining | significant cytoplasmic swelling and ‘blistering’ | strong red staining | significant cytoplasmic swelling and ‘blistering’ | strong red staining | significant cytoplasmic swelling and ‘blistering’
2 | CCCCCC(=O)OC1C(C)C2(O)C(C3OC3(CO)C(O)C3(O)C(=O)C(C)=CC32)C2C(C)(C)C12OC(=O)C(C)CC (stereo not drawn) [Compound 3, 12-hexanoyl-13-(2-methylbutanoyl)-6,7-epoxy-4,5,9,12,13,20-hexahydroxy-1-tiglien-3-one] | promotes uptake | significant release of ATP | significant release of ATP | significant release of ATP | strong red staining | significant cytoplasmic swelling and ‘blistering’ | strong red staining | significant cytoplasmic swelling and ‘blistering’ | strong red staining | significant cytoplasmic swelling and ‘blistering’ | strong red staining | significant cytoplasmic swelling and ‘blistering’
3 | CCCCCC(=O)OC1C(C)C2(O)C(C3OC3(CO)C(O)C3(O)C(=O)C(C)=CC32)C2C(C)(C)C12OC(=O)CCCCC (stereo not drawn) [Compound 4, 12,13-dihexanoyl-6,7-epoxy-4,5,9,12,13,20-hexahydroxy-1-tiglien-3-one] | promotes uptake | significant release of ATP | significant release of ATP | significant release of ATP | strong red staining | significant cytoplasmic swelling and ‘blistering’ | strong red staining | significant cytoplasmic swelling and ‘blistering’ | strong red staining | significant cytoplasmic swelling and ‘blistering’ | strong red staining | significant cytoplasmic swelling and ‘blistering’
